Counter-ions that a name gives are not always drawn. Like-named read-outs stand apart in the source and are kept apart here. Bounds are passed on as bounds.

Consider 18 molecules from US9040527B2, “Pyrimidinediamine kinase inhibitors” (Rigel Pharmaceuticals, Inc., priority 2008, dated 2015).

This assay has as its target PLK1 (Homo sapiens, UniProt P53350). The assay can be described thus: In vitro PLK1 ELISA assay (biochemical). Also noted: purchased Cell Signalling 7728. On the procedure: Inhibition of PLK1 was measured by quantifying phosphorylation of PLK1 substrates using chemiluminescent and fluorogenic probes. The protocols for these assays are provided below.
In Vitro PLK1 ELISA Assay
1. Preparation of Assay Plates.
Costar 96-well black or white solid flat high binding plates (Fisher Scientific, Catalog No. 07-200-591) were coated with Neutravidin (Pierce, Catalog No. 31000) using the following protocol. A 0.01 mg/mL solution of Neutravidin in 1× Phosphate Buffered Saline (“PBS”, Cellgro/Mediatech, Catalog No. 21-040-CV) was added to each well (100 μL/well) and was incubated for 18-24 hours at 4° C. The plates were then washed with 1× Phosphate Buffer Saline—Tween (“PBST”, Calbiochem, Catalog No. 524653) buffer using a plate washer. The plates were treated with bovine serum albumin (“BSA”, Sigma, Catalog No. A7906) to block non-specific binding sites, by adding a 2% BSA solution in 1×PBST buffer to each well (100 μL/well) and incubating the plates for 1 hour at room temperature. The plates were then washed with 1×PBST buffer using a plate washer.
2. PLK1-Catalyzed Phosphorylation Reaction
An aqueous buffer solution A having the following composition was prepared:
20 mM HEPES (Cellgro/Mediatech, Catalog No. 25-060Ci), pH 7.2;
5 mM MgCl2 (Sigma, Catalog No. M2393);
2 mM MnCl2.4H2O (EM Biosciences, Catalog No. MX0185-2);
1 mM Dithiothreitol (“DTT”, Fluka, Catalog No. B4184).
Next, the substrate solution B was prepared by adding 2.6 μL of 10 mM ATP (Sigma, Catalog No. A7699) and 6.4 μL of the 1 mM PLK1 substrate, CHK2-derived peptide Biotin-SSLETVSTQELYSIP (custom synthesized at Anaspec) SEQ ID: No. 1, to 4691 μL of the buffer solution A. The concentration of the ATP in solution B is 5.44 μM (1.36×); the concentration of the PLK1 substrate in solution B is 1.36 μM (1.36×).
Compound solutions C of varying concentrations for each compound were prepared by dissolving each compound in dimethylsulfoxide (DMSO, Sigma, Catalog No. D2650) to varying concentrations, followed by adding 2 μL of each solution to 38 μL of the buffer solution A, thereby forming 10× compound solutions in 5% DMSO.
A PLK1 solution D was prepared by adding 8.4 μL of 100 μg/mL PLK1 (Cell Signalling, Catalog No. 7728) to 1392 μL of the buffer solution A, thereby forming 0.6 μg/mL (6×) PLK1 solution.
The aqueous 1.36× substrate solution B was added to each well (44 μL/well) resulting in binding of the substrate to the plate via biotin/neutravidin interaction. Then 10× compound solutions C for each tested compound at each tested concentration were added to each well (6 μL/well). Next, 6×PLK1 solution D was added to each well (10 μL/well).
The final concentrations of tested compounds in each well were 10 μM, 3.3 μM, 1.1 μM, 0.36 μM, 0.12 μM, 0.04 μM, 0.014 μM, and 0.005 μM.
The obtained reaction mixtures were incubated in the wells for 45 minutes at room temperature, allowing PLK1-catalyzed phosphorylation of the substrate to proceed. The plates were then washed with 1×PBST solution using a plate washer, such that the bound phosphorylated or unphosphorylated substrate remains attached to the wells upon washing.
The washed plates were developed by treating the plates with a primary antibody that is specific for the phosphorylated substrate, followed by treatment with a secondary antibody that is specific for the primary antibody, and that is capable of catalyzing a reaction that results in a chemiluminescent readout. The chemiluminescent readout was used to quantify the substrate phosphorylation, and, consequently, to determine IC50 values for PLK1 inhibition, and was measured using a luminometer (Perkin Elmer/Wallac plate reader). The plate development protocol is described below.
A mixed antibody solution E was prepared by adding 1 μL of the primary antibody, rabbit p-CHK2(T68) (Rockland, Catalog No. 401280), and 1 μL of the secondary antibody, HRP-goat anti-rabbit IgG (Jackson Immunoresearch Catalog No. 111-035-003) to 10000 μL of 0.1% BSA in 1×PBST buffer. […]
On the technique in general: An ELISA detects its analyte on a solid surface through an enzyme-linked reagent.

[1] abbreviates: ELISA, CHK2-derived peptide substrate, read-out: PLK1 IC50 (μM) biochemical assay.
The mark [2] stands for this setting: read-out: IC50 in biochemical in vitro PLK1 ELISA assay (less than 10 μM).
[3] abbreviates: read-out: IC50 in biochemical ELISA assay (less than 0.01 μM).

Sequence of PLK1 (P53350 whole entry): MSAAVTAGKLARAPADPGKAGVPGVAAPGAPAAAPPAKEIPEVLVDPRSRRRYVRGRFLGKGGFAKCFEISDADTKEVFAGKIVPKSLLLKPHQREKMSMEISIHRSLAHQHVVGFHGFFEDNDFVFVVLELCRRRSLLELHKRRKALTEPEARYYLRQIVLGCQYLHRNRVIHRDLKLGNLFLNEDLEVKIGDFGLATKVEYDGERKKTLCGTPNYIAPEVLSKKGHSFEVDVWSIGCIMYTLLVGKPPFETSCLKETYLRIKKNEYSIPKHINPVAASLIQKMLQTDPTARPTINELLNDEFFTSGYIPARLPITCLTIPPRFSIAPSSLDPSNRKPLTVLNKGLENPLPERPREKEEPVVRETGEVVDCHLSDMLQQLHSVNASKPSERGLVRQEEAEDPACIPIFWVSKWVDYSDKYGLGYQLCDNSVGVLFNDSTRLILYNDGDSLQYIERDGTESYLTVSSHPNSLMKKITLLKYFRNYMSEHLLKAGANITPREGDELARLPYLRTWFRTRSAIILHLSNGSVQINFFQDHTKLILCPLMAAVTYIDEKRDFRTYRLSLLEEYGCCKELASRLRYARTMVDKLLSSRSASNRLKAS

What is called IC50 is the concentration at which inhibition is half-maximal. In the case of `CC(C)c1cc(Nc2ncc(F)c(Nc3ccc4c(n3)NCCO4)n2)ccc1N1CC2CC1CN2C` (stereo not drawn) [compound 10, N4-(3,4-dihydro-2H-pyrido[3,2-b][1,4]oxazin-6-yl)-5-fluoro-N2-(3-isopropyl-4-(5-methyl-2,5-diazabicyclo[2.2.1]heptan-2-yl)phenyl)pyrimidine-2,4-diamine], the IC50 under setting [1] is ≥ 10 µM.
In the case of `CN1CCN(c2cccc(Nc3ncc(F)c(N(c4ccc5c(n4)NCCO5)C4CCC4)n3)c2)CC1` [compound 15, N4-cyclobutyl-N4-(3,4-dihydro-2H-pyrido[3,2-b][1,4]oxazin-6-yl)-5-fluoro-N2-(3-(4-methylpiperazin-1-yl)phenyl)pyrimidine-2,4-diamine], the IC50 was 0.5 to 5 µM under setting [1] and < 10 µM under setting [2].
Consider `CN1CCN(c2cccc(Nc3nccc(Nc4ccc5c(n4)NC(=O)CO5)n3)c2)CC1` [compound 13, 6-(2-(3-(4-methylpiperazin-1-yl)phenylamino)pyrimidin-4-ylamino)-2H-pyrido[3,2-b][1,4]oxazin-3(4H)-one], for which the concentration for half-maximal inhibition (IC50) under setting [1] was ≥ 10 µM.
For the molecule `COc1cc(Nc2ncc(F)c(Nc3ccc4c(n3)NCCO4)n2)cc(N2CCN(C)CC2)c1` [compound 5, N4-(3,4-dihydro-2H-pyrido[3,2-b][1,4]oxazin-6-yl)-5-fluoro-N2-(3-methoxy-5-(4-methylpiperazin-1-yl)phenyl)pyrimidine-2,4-diamine], the IC50 by setting is: under setting [1], < 0.5 µM; under setting [3], < 0.01 µM; under setting [2], < 10 µM.
Turning to `CN1CCN(c2cccc(Nc3ncc(F)c(N(CC4CCCCC4)c4ccc5c(n4)NCCO5)n3)c2)CC1` [compound 7, N4-(cyclohexylmethyl)-N4-(3,4-dihydro-2H-pyrido[3,2-b][1,4]oxazin-6-yl)-5-fluoro-N2-(3-(4-methylpiperazin-1-yl)phenyl)pyrimidine-2,4-diamine], the IC50 under setting [1] was ≥ 10 µM.
With `CN1CCN(c2cccc(Nc3ncc(F)c(Nc4ccc5c(n4)NCCO5)n3)c2)CC1` [compound 168, N4-(3,4-dihydro-2H-pyrido[3,2-b][1,4]oxazin-6-yl)-5-fluoro-N2-(3-(4-methylpiperazin-1-yl)phenyl)pyrimidine-2,4-diamine p-toluene sulfonic acid salt], under setting [3], the half-maximal inhibitory concentration (IC50) is < 0.01 µM.
For the molecule `CN1CCN(c2cc(Nc3ncc(F)c(Nc4ccc5c(n4)NCCO5)n3)cc(OCC3CCC3)c2)CC1` [compound 16, N2-(3-(cyclobutylmethoxy)-5-(4-methylpiperazin-1-yl)phenyl)-N4-(3,4-dihydro-2H-pyrido[3,2-b][1,4]oxazin-6-yl)-5-fluoropyrimidine-2,4-diamine], the IC50 by setting is: under setting [1], < 0.5 µM; under setting [2], < 10 µM.
Regarding `CN1CCN(c2cc(Nc3ncc(F)c(Nc4ccc5c(n4)NC(=O)CO5)n3)cc(OCC3CCC3)c2)CC1` [compound 14, 6-(2-(3-(cyclobutylmethoxy)-5-(4-methylpiperazin-1-yl)phenylamino)-5-fluoropyrimidin-4-ylamino)-2H-pyrido[3,2-b][1,4]oxazin-3(4H)-one], the 50% inhibitory concentration (IC50) under setting [1] was ≥ 10 µM.
Take `COC(=O)c1cnc(Nc2cccc(N3CCN(C)CC3)c2)nc1Nc1ccc2c(n1)NCCO2` [compound 11, methyl 4-(3,4-dihydro-2H-pyrido[3,2-b][1,4]oxazin-6-ylamino)-2-(3-(4-methylpiperazin-1-yl)phenylamino)pyrimidine-5-carboxylate]: the IC50 under setting [1] was ≥ 10 µM.
In the case of `COc1cc(Nc2ncc(F)c(Nc3ccc4c(n3)NC(=O)CO4)n2)cc(N2CCN(C)CC2)c1` [compound 3, 6-(5-fluoro-2-(3-methoxy-5-(4-methylpiperazin-1-yl)phenylamino)pyrimidin-4-ylamino)-2H-pyrido[3,2-b][1,4]oxazin-3(4H)-one], the IC50 was < 0.5 µM under setting [1] and < 10 µM under setting [2].
The corresponding values for `Cc1cc(Nc2ncc(F)c(Nc3ccc4c(n3)N(CC3CC3)C(=O)CO4)n2)ccc1N1CCN(C)CC1` [compound 111, 4-(cyclopropylmethyl)-6-(5-fluoro-2-(3-methyl-4-(4-methylpiperazin-1-yl)phenylamino)pyrimidin-4-ylamino)-2H-pyrido[3,2-b][1,4]oxazin-3(4H)-one] are 0.5 to 5 µM and < 10 µM.
For `CN1CCN(c2cccc(Nc3ncc(F)c(Nc4ccc5c(n4)NC(=O)CO5)n3)c2)CC1` [compound 19, 6-(5-fluoro-2-(3-(4-methylpiperazin-1-yl)phenylamino)pyrimidin-4-ylamino)-2H-pyrido[3,2-b][1,4]oxazin-3(4H)-one hydrochloride], the IC50 under setting [3] was < 0.01 µM.
Regarding `CN1CCN(c2cccc(Nc3ncc(F)c(N(CC4CCC4)c4ccc5c(n4)NCCO5)n3)c2)CC1` [compound 4, N4-(cyclobutylmethyl)-N4-(3,4-dihydro-2H-pyrido[3,2-b][1,4]oxazin-6-yl)-5-fluoro-N2-(3-(4-methylpiperazin-1-yl)phenyl)pyrimidine-2,4-diamine], the IC50 was 5 to 10 µM under setting [1] and < 10 µM under setting [2].
As for `CN1CC2CC1CN2c1ccc(Nc2ncc(F)c(Nc3ccc4c(n3)NCCO4)n2)cc1C(F)(F)F` (stereo not drawn) [compound 57, N4-(3,4-dihydro-2H-pyrido[3,2-b][1,4]oxazin-6-yl)-5-fluoro-N2-(4-(5-methyl-2,5-diazabicyclo[2.2.1]heptan-2-yl)-3-(trifluoro-methyl)phenyl)pyrimidine-2,4-diamine], the IC50 under setting [1] is ≥ 10 µM.
Same read-out and setting: the value for `CN1CCN(c2cccc(Nc3ncc(C(=O)O)c(Nc4ccc5c(n4)NCCO5)n3)c2)CC1` [compound 12, 4-(3,4-dihydro-2H-pyrido[3,2-b][1,4]oxazin-6-ylamino)-2-(3-(4-methyl-piperazin-1-yl)phenyl-amino)pyrimidine-5-carboxylic acid] was ≥ 10 µM.
On the same count and under the same terms, for `CN1CCN(c2cccc(Nc3ncc(F)c(N(c4ccc5c(n4)NCCO5)C4CCCCC4)n3)c2)CC1` [compound 9, N4-cyclohexyl-N4-(3,4-dihydro-2H-pyrido[3,2-b][1,4]oxazin-6-yl)-5-fluoro-N2-(3-(4-methylpiperazin-1-yl)phenyl)pyrimidine-2,4-diamine] the value was ≥ 10 µM.
For `CN1CCN(c2cccc(Nc3ncc(C(F)(F)F)c(Nc4ccc5c(n4)NC(=O)CO5)n3)c2)CC1` [compound 6, 6-(2-(3-(4-methylpiperazin-1-yl)phenylamino)-5-(trifluoro-methyl)pyrimidin-4-ylamino)-2H-pyrido[3,2-b][1,4]oxazin-3(4H)-one], the IC50 under setting [1] is < 0.5 µM, the IC50 under setting [3] was < 0.01 µM and the concentration for half-maximal inhibition (IC50) under setting [2] is < 10 µM.
Regarding `CC(C)c1cc(Nc2ncc(F)c(Nc3ccc4c(n3)NC(=O)CO4)n2)ccc1N1CC2CC1CN2C` (stereo not drawn) [compound 8, 6-(5-fluoro-2-(3-isopropyl-4-(5-methyl-2,5-diazabicyclo[2.2.1]heptan-2-yl)phenylamino)pyrimidin-4-ylamino)-2H-pyrido[3,2-b][1,4]oxazin-3(4H)-one], under setting [1], the IC50 was ≥ 10 µM.
